This note sets out measurements from US9221783B2, “Phenylalkyl sulfamate compound and muscle relaxant composition comprising the same” (BIO-PHARM SOLUTIONS CO., LTD., priority 2012, dated 2015).

In general, ED50 refers to the dose that gives a 50% effect, or the effect in half of the subjects. High values mean a need for a large dose, low ones an effect at a small dose.

Type in all cases: in vivo
The subject of experiment [1] is male mice (ICR). Description: Muscle relaxation activity by grip strength test (forelimbs). The settings on record: intraperitoneal; for ED50: Mus musculus, ip; for Grip strength, percentage compared to the vehicle only (100%): dose 200 (unit not given). Here is the method:
(§1) For testing, male mice (ICR) were purchased from ORIENT BIO INC. (Korea), divided into several groups with 6 mice in each group, and were adapted for 4-5 days. The mice having the weight ranging from 19 g to 26 g were employed for the test. The pharmacological effect of the test compounds on muscle relaxation was evaluated by Rotarod test, grip strength test, and muscular force (wire hang) test. All mice were adapted to the test environment at one hour before starting the tests. The pharmacological effects of all the test compounds were evaluated by administration through peritoneal cavity of the mice (10 ul/g, bw).
The test was conducted before and after administration of the compounds to evaluate the effects thereof. […] The mouse was made to grip the rod with its forelimbs, and its tail was pulled, where the force at which the mouse detached from the rod was recorded. The instrument indicated the force in grams. All of the mice were given 3 opportunities for test, and the 3 highest values among the test opportunities were selected and the mean value was used as the test result. […] Psychopharmacol. 110: 92-96’.
(§2) The obtained results are shown as mean±sem. The difference between the groups was statistically analyzed by ANOVA, and then, further examined by Dunnett's test or Bonferroni test. If p is less than 0.05, it was determined that the difference between the groups had statistical significance.

In experiment [2] the test system is male mice (ICR). The experiment is described as follows: Muscle relaxation activity by residence time on a rotarod rotating at a fixed speed. Conditions: intraperitoneal; for ED50: Mus musculus, ip, 15 rpm, max 10 min, ED50 vs vehicle only (100%), determined at 0.5 h (time of maximum effect). Here is the method:
as §1
All the mice to be tested were preliminarily trained for 5 minutes on a rod rotating at the rate of 15 revolutions per a minute. The mice that could not remain on the rod without falling off therefrom for a minimum of 2 minutes were excluded from this testing. After the training, all the mice were allowed to rest for 45-60 minutes. Before the administration of the test compounds, the mice were subjected to a further training for one minute on the rod rotating under the same condition, where the mice falling off from the rod were excluded from this experimentation. […] In case a mouse stays on the rod until the test is finished, the time was recorded as 10 minutes. As test time for evaluation, a maximum of 10 minutes was applied. This experimentation was conducted according to the method described in the reference, ‘Yasuda et al. (2005) Antipyretic, analgesic and muscle relaxant activities of Pueraria isoflavonoids and their metabolites from Pueraria lobata Ohwi—a traditional Chinese drug. Biol. Pharm. Bull. 28: 1224-1228.
as §2
(§3) The results of muscle relaxation activity of the phenylalkyl sulfamate compounds measured in above Experimental Examples 1 to 43 are shown in following Table 2.
(The rotarod test checks motor coordination on a turning rod.)

For experiment [3], the system named is male mice (ICR). The experiment is described as follows: Muscle relaxation activity by wire hang (wire suspension) test. The settings on record: intraperitoneal; for ED50: Mus musculus, ip, ED50 vs vehicle only (100%); for Wire suspension, percentage compared to the vehicle only (100%): dose 100 (unit not given). Here is the method: as §1
This experimentation was conducted using a metal wire of 30 cm in length, which was suspended between two pillars at a height of about 40 cm from the bottom covered with a soft pad. […] Each mouse was made to grip the wire using two forelimbs, and the elapse time before the mouse fell off from the wire to the pad on the bottom was recorded in seconds. Each mouse was given 5 opportunities for this test at an interval of 2 minutes period. The highest 3 records among the test opportunities were selected and the mean value was used as the test result. This experimentation was conducted according to the method described in the reference, ‘Jacqueline N. Crawley (1999) Behavioral phenotyping of transgenic and knockout mice: experimental design and evaluation of general health, sensory functions, motor abilities, and specific behavioral tests. Brain Res. 835: 18-26’.
as §2, §3

The mark [4] stands for this setting: ED50 = 50% of muscle relaxation activity compared to vehicle only (100%), determined at 0.5 h (time of maximum effect).
[5] abbreviates: determined at 0.5 h (time of maximum effect).

Take `CC1(C)O[C@@H](COS(N)(=O)=O)[C@H](c2ccccc2Cl)O1` [Example 2, ((4S,5S)-5-(2-chlorophenyl)-2,2-dimethyl-1,3-dioxolan-4-yl)methyl sulfamate]: the figures for the median effective dose (ED50) in experiment [1] (setting [4]), in experiment [2] and in experiment [3] (setting [5]) were 211 mg/kg, 73.6 mg/kg and 81.4 mg/kg, respectively. Turning to `CC1(C)OC(COS(N)(=O)=O)C(c2ccccc2Cl)O1` (stereo not drawn) [Example 4, (5-(2-chlorophenyl)-2,2-dimethyl-1,3-dioxolan-4-yl)methyl sulfamate], the “Grip strength, percentage compared to the vehicle only (100%)” value (shortened to “Grip strength, percentage … (100%)”) in experiment [1] is 200 (56.5%). Moreover, the “Fixed rotarod, percentage of residence time compared to the vehicle only (100%)” value (from here on “Fixed rotarod, percentage … (100%)”) in experiment [2] (dose 100 (unit not given)) was 100 (76.6%). Besides, the “Wire suspension, percentage compared to the vehicle only (100%)” value (“Wire suspension, percentage … (100%)” for short) in experiment [3] was 100 (41.3%). Take `CC1(C)O[C@@H](COS(N)(=O)=O)[C@H](c2ccccc2I)O1` [Example 28, ((4S,5S)-5-(2-iodophenyl)-2,2-dimethyl-1,3-dioxolan-4-yl)methyl sulfamate]: the 50% effective dose (ED50) worked out at 261 mg/kg in experiment [1] (setting [4]) and 102 mg/kg in experiment [2]. For the same compound, in experiment [3], the “Wire suspension, percentage … (100%)” value is on record as 100(66.8%). As for `CC1(C)OC(COS(N)(=O)=O)C(c2ccccc2Cl)O1` (stereo not drawn) [Example 3, (5-(2-chlorophenyl)-2,2-dimethyl-1,3-dioxolan-4-yl)methyl sulfamate], the ED50 was found to be 205 mg/kg in experiment [1] (ED50 vs vehicle only (100%), determined at 0.25 h (time of maximum effect)); 99.2 mg/kg in experiment [2]; 116 mg/kg in experiment [3] (determined at 1 h (time of maximum effect)). Turning to `CC1O[C@@H](COS(N)(=O)=O)[C@H](c2ccccc2Cl)O1` (stereo partly drawn) [Example 6, ((4S,5S)-5-(2-chlorophenyl)-2-methyl-1,3-dioxolan-4-yl)methyl sulfamate], the “Grip strength, percentage … (100%)” value in experiment [1] is given as 200 (44.8%). Also, in experiment [2] (dose 100 (unit not given)), the “Fixed rotarod, percentage … (100%)” value is 100 (50.4%). The “Wire suspension, percentage … (100%)” value in experiment [3] is 100 (70.0%). Consider `CC1(C)O[C@@H](COS(N)(=O)=O)[C@H](c2ccccc2F)O1` [Example 16, ((4S,5S)-5-(2-fluorophenyl)-2,2-dimethyl-1,3-dioxolan-4-yl)methyl sulfamate], for which the results for the ED50 in experiment [1] (setting [4]) and in experiment [3] (setting [5]) were 161 mg/kg and 99.1 mg/kg, respectively. With `CC1(C)O[C@H](c2ccccc2F)[C@@H](COS(N)(=O)=O)O1` [Example 15, ((4R,5R)-5-(2-fluorophenyl)-2,2-dimethyl-1,3-dioxolan-4-yl)methyl sulfamate], the “Fixed rotarod, percentage … (100%)” value in experiment [2] (dose 140 (unit not given)) is reported as 140(22.7%). For `CC1(C)O[C@H](c2ccccc2Cl)[C@@H](COS(N)(=O)=O)O1` [Example 1, ((4R,5R)-5-(2-chlorophenyl)-2,2-dimethyl-1,3-dioxolan-4-yl)methyl sulfamate], the 50% effective dose (ED50) in experiment [1] (setting [4]) was 212 mg/kg; in experiment [2] it was 108 mg/kg; in experiment [3] (setting [5]) it was 96.7 mg/kg.

For the compound `NS(=O)(=O)OCC[C@@H]1OC2(CCCC2)O[C@H]1c1ccccc1Cl` [Example 158, 2-((2S,3S)-3-(2-chlorophenyl)-1,4-dioxaspiro[4,4]nonan-2-yl)ethyl sulfamate], in experiment [1], the “Grip strength, percentage … (100%)” value is on record as 200 (74.2%).

In the case of `CC1(C)O[C@@H](COS(N)(=O)=O)[C@H](c2ccccc2)O1` [Example 106, ((4S,5S)-5-phenyl-2,2-dimethyl-1,3-dioxolan-4-yl)methyl sulfamate], the “Grip strength, percentage … (100%)” value in experiment [1] is given as 200 (62.8%). Still for that read-out and setting: in the case of `Nc1ccccc1[C@@H]1OC2(CCCC2)O[C@H]1COS(N)(=O)=O` [Example 72, ((2S,3S)-3-(2-aminophenyl)-1,4-dioxaspiro[4,4]nonan-2-yl)methyl sulfamate] it was 200 (87.0%). The same measure, in the same setting: in the case of `NS(=O)(=O)OCC[C@@H]1OC2(CCCCC2)O[C@H]1c1ccccc1` [Example 136, 2-((2S,3S)-3-phenyl-1,4-dioxaspiro[4,5]decan-2-yl)ethyl sulfamate] it was 200 (80.8%). `CC1(C)O[C@H](c2ccccc2I)[C@@H](COS(N)(=O)=O)O1` [Example 27, ((4R,5R)-5-(2-iodophenyl)-2,2-dimethyl-1,3-dioxolan-4-yl)methyl sulfamate] gave a 50% effective dose (ED50) in experiment [1] (setting [4]) of 378 mg/kg. In the case of `Nc1ccccc1[C@@H]1OC2(CCCCC2)O[C@H]1COS(N)(=O)=O` [Example 74, ((2S,3S)-3-(2-aminophenyl)-1,4-dioxaspiro[4,5]decan-2-yl)methyl sulfamate], the “Grip strength, percentage … (100%)” value in experiment [1] is 200 (88.1%).
